Legend:
[1] = system: HEK293 (human embryonic kidney); experiment: CCK-8 cytotoxicity assay, HEK293; assay type: cell-based; settings: HEK293, 48 h, CCK-8, 50% growth inhibition
Experimental: (§1) The cytotoxicity of the newly synthesized quinolinylphosphonates 7 was evaluated in vitro by testing their antiproliferative activities against several human cancer cell lines: A549 (human lung adenocarcinoma cells), SKOV3 (human ovarian carcinoma), and HEK293 (human embryonic kidney). In order to analyze the selective cytotoxicity facing exclusively cancerous cell lines, cytotoxicity against non-cancerous cell lines (MRC-5, lung fibroblast cells) was also evaluated. Cell counting kit (CCK-8) assay was employed to assess growth inhibition and, cell proliferation inhibitory activities of compounds that are listed in Table 1 as IC50 values. […] According to the data presented in Table 1, in general, all these phosphorated derivatives present higher selective cytotoxicity in the A549 cell line than in the other two cell lines, SKOV3 and HEK293, although slight differences are observed compared to human ovarian carcinoma (SKOV3).
(§2) Cells were cultured according to the supplier’s instructions, A549 (ATCC® CCL-185), SKOV3 (ATCC® HTB-77), HEK293 (CLS GmbH), MRC-5 (ATCC® CCL-171™). Cells were seeded in 96-well plates at a density of 2–2.5 × 10^3 cells per well and incubated overnight in 0.1 mL of media supplied with 10% Fetal Bovine Serum (Lonza, Basel, Switzerland) in a 5% CO2 incubator at 37 °C. On day 2, drugs (concentration between 0.5–50 μM) were added and samples were incubated for 48 h. After treatment, 10 μL of cell counting kit-8 was added to each well for an additional 2 h incubation at 37 °C. The absorbance of each well was determined by an Automatic Elisa Reader System at 450 nm wavelength. CPT was purchased from Sigma-Aldrich and used as a positive control.

[2] = CCK-8 cytotoxicity assay, MRC-5 non-cancerous cells; assay type: cell-based; settings: human, MRC-5 non-malignant lung fibroblasts
Experimental: as §1, §2

[3] = system: L. infantum amastigotes; experiment: Ex vivo murine splenic explant culture, intramacrophage amastigotes; assay type: cell-based; settings: Leishmania infantum, Hec50; intramacrophage amastigotes in splenic explants, 96 h, EC50 ± SD
Experimental: The effect of the new quinolinylphosphonate derivatives 7 synthesized was assessed on both free-living promastigotes and intramacrophage amastigotes of L. infantum as it is described in experimental protocols. Primary cultures of intramacrophage amastigotes were obtained from splenic explants from 6-weeks infected Balb/c mice with L. infantum-iRFP promastigotes. The infrared fluorescence emitted by both stage forms of the parasite was used as viability criterium, using 0.5% DMSO as negative control (100% viability) and […] AMB as a positive control (0% viability).
The EC50 values of compounds against the amastigote forms were calculated using a cell suspension obtained from spleens extracted from BALB/c mice. Mice had been infected previously with iRFP L. infantum metacyclic promastigotes and sacrificed five weeks after infection. To obtain the cell suspension containing amastigotes, spleens washed with cold phosphate-buffered saline (PBS), were cut into pieces, and incubated with 5 mL of 2 mg/mL collagenase D (Sigma, Darmstadt, Germany), which was prepared in buffer (10 mM HEPES, pH 7.4, 150 mM NaCl, 5 mM KCl, 1 mM MgCl2 and 1.8 mM CaCl2) for 20 min. Subsequently, these cells were passed through a 100 µm cell strainer, collected by centrifugation (500× g for 7 min at 4 °C), washed twice with PBS, and suspended in RPMI medium (Gibco, Thermo Fisher Scientific, MA, USA) supplemented with 10 mM HEPES, 1 mM sodium pyruvate, 1xRPMI 1640 vitamin mix, 10% (v/v) FBS, 50 U/mL penicillin and 50 µg/mL streptomycin, at 37 °C under a 5% CO2 atmosphere.
To assay the effect of the different compounds against amastigotes, which infect splenic cells, these cells were seeded to confluence into 384-well black optical bottom plates (Thermo Scientific, Waltham, MA, USA) in addition to different concentrations of compound to each well. The viability of amastigotes was calculated by recording their fluorescence at 708 nm in an Odyssey (Li-Cor, NE, USA) infrared imaging system, after 96 h of exposure. Plots of the infrared fluorescence against the concentrations of tested compounds were fitted by nonlinear analysis using the Sigma Plot 10.1 statistical package and used to calculate EC50 values. As well as promastigotes viability, the assays were performed in triplicate.

[4] = system: murine splenocytes; experiment: Splenocyte viability, Alamar Blue; assay type: cell-based, BALB/c mice; settings: for IC50: Mus musculus, Splenocyte, read-out: IC50 Splenocites; for SI (selectivity index): ratio IC50 splenic cells / EC50 amastigotes
Experimental: The viability of splenocytes cells against the different compounds was measured using the Alamar Blue staining method (Invitrogen, MA, USA). For this purpose, these cells were obtained following the protocol indicated in the previous section, from uninfected mice. Plots of absorbance of viable cells (obtained following manufacturer’s recommendations of Alamar Blue) vs compounds concentration were used to calculate CC50 values. Plots were fitted by nonlinear analysis using the Sigma Plot 10.1 statistical package. The assays were performed by triplicate.
The selectivity index for each compound was calculated as the ratio between the IC50 value for splenic cells and the EC50 value for amastigotes.

## CCOP(=O)(OCC)c1cccc2c(-c3ccc(C)cc3)cc(-c3ccc(F)c(F)c3)nc12 [7k, Diethyl (2-(3,4-difluorophenyl)-4-(p-tolyl)quinolin-8-yl)phosphonate]
[1]
  IC50: 22.3 ± 1.36 µM
[2]
  IC50 at 48 h: > 50 µM
[3]
  EC50: 26.2 ± 3.65 µM
[4]
  IC50: 24.1 ± 7.79 µM
  SI (selectivity index): 0.9

## CCOP(=O)(OCC)c1ccc2nc(-c3ccc(F)cc3)cc(-c3ccc(C)cc3)c2c1 [7v, Diethyl (2-(4-fluorophenyl)-4-(p-tolyl)quinolin-6-yl)phosphonate]
[1]
  IC50: > 50 µM
[2]
  IC50 at 48 h: > 50 µM
[3]
  EC50: 17.6 ± 7.81 µM
[4]
  IC50: 11.2 ± 4.42 µM
  SI (selectivity index): 0.6

## CCOP(=O)(OCC)c1ccc2nc(-c3ccc(F)cc3)cc(-c3ccc(F)cc3)c2c1 [7t, Diethyl (2,4-bis(4-fluorophenyl)quinolin-6-yl)phosphonate]
[1]
  IC50: > 50 µM
[2]
  IC50 at 48 h: > 50 µM
[3]
  EC50: 31.5 ± 2.71 µM
[4]
  IC50: 45 ± 10.2 µM
  SI (selectivity index): 1.4

## CCOP(=O)(OCC)c1cccc2c(-c3ccc(F)cc3)cc(-c3ccccc3)nc12 [7g]
[1]
  IC50: 24.4 ± 3.46 µM
[2]
  IC50 at 48 h: > 50 µM
[3]
  EC50: 11.9 ± 5.17 µM
[4]
  IC50: 33.9 ± 7.98 µM
  SI (selectivity index): 2.8

## CC(C)OP(=O)(OC(C)C)c1cccc2c(-c3ccccc3)cc(-c3ccc(F)cc3)nc12 [7l, Diisopropyl (2-(4-fluorophenyl)-4-phenylquinolin-8-yl)phosphonate]
[1]
  IC50: 10.1 ± 1.26 µM
[2]
  IC50 at 48 h: > 50 µM
[3]
  EC50: 19.5 ± 2.23 µM
[4]
  IC50: 22.1 ± 4.7 µM
  SI (selectivity index): 1.1

## CC(C)OP(=O)(OC(C)C)c1cccc2c(-c3ccc(F)cc3)cc(-c3ccc(F)c(F)c3)nc12 [7o, Diisopropyl (2-(3,4-difluorophenyl)-4-(4-fluorophenyl)quinolin-8-yl)phosphonate]
[1]
  IC50: 21 ± 4.05 µM
[2]
  IC50 at 48 h: > 50 µM
[3]
  EC50: 19.7 ± 1.73 µM
[4]
  IC50: 18.6 ± 1.1 µM
  SI (selectivity index): 0.9

## CCOP(=O)(OCC)c1ccc2nc(-c3ccc(F)c(F)c3)cc(-c3ccc(C)cc3)c2c1 [7x, Diethyl (2-(3,4-difluorophenyl)-4-(p-tolyl)quinolin-6-yl)phosphonate]
[1]
  IC50: > 50 µM
[2]
  IC50 at 48 h: > 50 µM
[3]
  EC50: 33 ± 6.55 µM
[4]
  IC50: 32.3 ± 3.36 µM
  SI (selectivity index): 1

## CCOP(=O)(OCC)c1cccc2c(-c3ccccc3)cc(-c3ccc(OC)cc3)nc12 [7c, Diethyl (2-(4-methoxyphenyl)-4-phenylquinolin-8-yl)phosphonate]
[1]
  IC50: 38.3 ± 8.9 µM
[2]
  IC50 at 48 h: > 50 µM
[3]
  EC50: 8.23 ± 1.7 µM
[4]
  IC50: 15.9 ± 1.65 µM
  SI (selectivity index): 1.9

## Cc1ccc(-c2cc(-c3ccc(F)cc3)nc3c(P(=O)(OC(C)C)OC(C)C)cccc23)cc1 [7p, Diisopropyl (2-(4-fluorophenyl)-4-(p-tolyl)quinolin-8-yl)phosphonate]
[1]
  IC50: 14.4 ± 1.69 µM
[2]
  IC50 at 48 h: > 50 µM
[3]
  EC50: 24.3 ± 2.53 µM
[4]
  IC50: 21.2 ± 3.5 µM
  SI (selectivity index): 0.9

## CCOP(=O)(OCC)c1cccc2c(-c3ccccc3)cc(-c3ccc(F)cc3)nc12 [7b, Diethyl (4-Phenyl-2-(fluorophenyl)quinolin-8-il) phosphonate]
[1]
  IC50: 43 ± 4.65 µM
[2]
  IC50 at 48 h: > 50 µM
[3]
  EC50: 14.6 ± 1.3 µM
[4]
  IC50: 12.2 ± 1.77 µM
  SI (selectivity index): 0.8

## CCOP(=O)(OCC)c1cccc2c(-c3ccccc3)cc(-c3ccccc3OC)nc12 [7d, Diethyl (2-(2-methoxyphenyl)-4-phenylquinolin-8-yl)phosphonate]
[1]
  IC50: > 50 µM
[2]
  IC50 at 48 h: > 50 µM
[3]
  EC50: 19.5 ± 2.38 µM
[4]
  IC50: 30.1 ± 6.05 µM
  SI (selectivity index): 1.5

## CCOP(=O)(OCC)c1cccc2c(-c3ccc(F)cc3)cc(-c3ccc(F)cc3)nc12 [7h, Diethyl (2,4-bis(4-fluorophenyl)quinolin-8-yl)phosphonate]
[1]
  IC50: 15.7 ± 1.74 µM
[2]
  IC50 at 48 h: > 50 µM
[3]
  EC50: 24.2 ± 2.37 µM
[4]
  IC50: 20.3 ± 7.49 µM
  SI (selectivity index): 0.8

## CCOP(=O)(OCC)c1ccc2nc(-c3ccc(F)c(F)c3)cc(-c3ccc(F)cc3)c2c1 [7u, Diethyl (2-(3,4-difluorophenyl)-4-(4-fluorophenyl)quinolin-6-yl)phosphonate]
[1]
  IC50: > 50 µM
[2]
  IC50 at 48 h: > 50 µM
[3]
  EC50: 26.4 ± 2.2 µM
[4]
  IC50: > 100 µM
  SI (selectivity index): >3.8

## CCOP(=O)(OCC)c1ccc2nc(-c3ccc(F)cc3)cc(-c3ccccc3)c2c1 [7r, Diethyl (2-(4-fluorophenyl)-4-phenylquinolin-6-yl)phosphonate]
[1]
  IC50: 36.9 ± 8.06 µM
[2]
  IC50 at 48 h: > 50 µM
[3]
  EC50: 29.2 ± 14 µM
[4]
  IC50: 28.1 ± 1.23 µM
  SI (selectivity index): 1

## CC(C)OP(=O)(OC(C)C)c1cccc2c(-c3ccc(F)cc3)cc(-c3ccc(F)cc3)nc12 [7n, Diisopropyl (2,4-bis(4-fluorophenyl)quinolin-8-yl)phosphonate]
[1]
  IC50: 15 ± 0.99 µM
[2]
  IC50 at 48 h: > 50 µM
[3]
  EC50: 5.52 ± 1.11 µM
[4]
  IC50: 15.3 ± 1.72 µM
  SI (selectivity index): 2.8

## CCOP(=O)(OCC)c1cccc2c(-c3ccccc3)cc(-c3cccc4ccccc34)nc12 [7f, Diethyl (2-(naphthalen-1-yl)-4-phenylquinolin-8-yl)phosphonate]
[1]
  IC50: 35.7 ± 3.13 µM
[2]
  IC50 at 48 h: > 50 µM
[3]
  EC50: 19.7 ± 2.39 µM
[4]
  IC50: 12.2 ± 1.49 µM
  SI (selectivity index): 0.6

## CCOP(=O)(OCC)c1cccc2c(-c3ccccc3)cc(-c3ccc4ccccc4c3)nc12 [7e, Diethyl (2-(naphthalen-2-yl)-4-phenylquinolin-8-yl)phosphonate]
[1]
  IC50: 48.1 ± 6.39 µM
[2]
  IC50 at 48 h: > 50 µM
[3]
  EC50: 20.4 ± 5.62 µM
[4]
  IC50: 51.6 ± 1.52 µM
  SI (selectivity index): 2.5

## CCOP(=O)(OCC)c1cccc2c(-c3ccc(C)cc3)cc(-c3ccc(F)cc3)nc12 [7j, Diethyl (2-(4-fluorophenyl)-4-(p-tolyl)quinolin-8-yl)phosphonate]
[1]
  IC50: > 50 µM
[2]
  IC50 at 48 h: > 50 µM
[3]
  EC50: 9.8 ± 0.48 µM
[4]
  IC50: 14.5 ± 1.56 µM
  SI (selectivity index): 1.5

## CC(C)OP(=O)(OC(C)C)c1cccc2c(-c3ccccc3)cc(-c3ccc(F)c(F)c3)nc12 [7m, Diisopropyl (2-(3,4-difluorophenyl)-4-phenylquinolin-8-yl)phosphonate]
[1]
  IC50: > 50 µM
[2]
  IC50 at 48 h: > 50 µM
[3]
  EC50: 10.2 ± 1.34 µM
[4]
  IC50: 19.8 ± 3.76 µM
  SI (selectivity index): 1.9

## CCOP(=O)(OCC)c1cccc2c(-c3ccc(F)cc3)cc(-c3ccc(F)c(F)c3)nc12 [7i, Diethyl (2-(3,4-difluorophenyl)-4-(4-fluorophenyl)quinolin-8-yl)phosphonate]
[1]
  IC50: > 50 µM
[2]
  IC50 at 48 h: > 50 µM
[3]
  EC50: 13.4 ± 5.53 µM
[4]
  IC50: 20.6 ± 3.11 µM
  SI (selectivity index): 1.5

## CCOP(=O)(OCC)c1ccc2nc(-c3ccc(F)c(F)c3)cc(-c3ccccc3)c2c1 [7s, Diethyl (2-(3,4-difluorophenyl)-4-phenylquinolin-6-yl)phosphonate]
[1]
  IC50: 19.2 ± 1.13 µM
[2]
  IC50 at 48 h: > 50 µM
[3]
  EC50: 14.2 ± 2.83 µM
[4]
  IC50: 26.2 ± 0.51 µM
  SI (selectivity index): 1.8

Source: paper PMC8399847, “Hybrid Quinolinyl Phosphonates as Heterocyclic Carboxylate Isosteres: Synthesis and Biological Evaluation against Topoisomerase 1B (TOP1B)” (Pharmaceuticals, 2021)
